Data as given in paper PMC6072501, “N-tert-Prenylation of the indole ring improves the cytotoxicity of a short antagonist G analogue against small cell lung cancer” (MedChemComm, 2017).
Entries after “also recorded” stand apart in the source; their conditions may differ. *1 amine or outer side, *2 acyl side, *3 side chain or, on linkers, in order; H or OH if unused. Where a SMILES comes first, the peptide text is derived from it. Where no end group is shown, it is not given here. [ ]: non-standard residue; d: D form. X1 = C=CC(C)(C)n1cc(C[C@@H](N[*:1])C(=O)[*:2])c2ccccc21; NMeF = CN[C@@H](Cc1ccccc1)C(=O)O; dNMeF = CN[C@H](Cc1ccccc1)C(=O)O

Key:
[1] = system: 3T3 Swiss Albino fibroblasts; assay type: cell-based, mouse; settings: 48 h
Excerpt: (§1) Swiss Albino cell line 3T3 and two SCLC cell lines, DMS79 and H69, were selected for screening. 3T3 cells are fibroblast non-cancerous cells and were used to show the selectivity of the peptides for cancer treatment. The DMS79 cell line is a variant cell line model which is more resistant to chemotherapy as it originates from a patient with SCLC who had undergone treatment with cytoxan, vincristine, methotrexate and radiation therapy. On the other hand, H69 represents a chemo-naive SCLC cell line model. Cell viability was assessed by quantifying the reduction of resazurin dye to fluorescent resorufin.[28]–[31] H69 and DMS79 cells were seeded in 96-well plates at a density of 10 000 cells per well and maintained in 10% FBS/RPMI-1640 for 48 hours at 37 °C in a humidified air atmosphere of 5% CO2 in the presence of various peptide concentrations. […] The dye was then applied for 5 hours before measuring fluorescence. […]
(§2) Complete medium containing resazurin was used as background. […] Then resazurin (20 µl) was added to each well and kept at 37 °C in a humidified air atmosphere of 5% CO2 for 5 hours before fluorescence readings were recorded. […]
(§3) Assessment of apoptosis was carried out through a fluorescent technique by using Acridine Orange (AO) and Ethidium Bromide (EB) double staining. […] AO emits green fluorescence while EB emits red/orange fluorescence when […]

[2] = system: H69 small cell lung cancer cell line; test: Cell viability assay (resazurin) on H69 cells; assay type: cell-based, human; settings: 48 h
Excerpt: Swiss Albino cell line 3T3 and two SCLC cell lines, DMS79 and H69, were selected for screening. 3T3 cells are fibroblast non-cancerous cells and were used to show the selectivity of the peptides for cancer treatment. The DMS79 cell line is a variant cell line model which is more resistant to chemotherapy as it originates from a patient with SCLC who had undergone treatment with cytoxan, vincristine, methotrexate and radiation therapy. On the other hand, H69 represents a chemo-naive SCLC cell line model. Cell viability was assessed by quantifying the reduction of resazurin dye to fluorescent resorufin.[28]–[31] H69 and DMS79 cells were seeded in 96-well plates at a density of 10 000 cells per well and maintained in 10% FBS/RPMI-1640 for 48 hours at 37 °C in a humidified air atmosphere of 5% CO2 in the presence of various peptide concentrations. 3T3 cells were maintained under the same conditions but using 10% FBS/DMEM and a seeding density of 2500 cells per well. The dye was then applied for 5 hours before measuring fluorescence. […] The peptide thus had the potential to be tested in vivo subject to its biocompatibility with plasma.
Growth media, RPMI-1640 (with L-glutamine and NaHCO3) and DMEM, Dulbecco’s PBS (without calcium chloride and magnesium chloride), and Resazurin sodium salt were obtained from Sigma-Aldrich®. Human lung small cell carcinoma (H69 (ECACC 91091802)) and Mouse Swiss Albino embryo fibroblast (3T3 Swiss Albino (ECACC 85022108)) were from European Collection of Authenticated Cell Cultures (ECACC, Public Health England). […]
as §2, §3

[3] = system: DMS79 small cell lung cancer cell line; test: Cell viability assay (resazurin) on DMS79 cells; assay type: cell-based, human; settings: 48 h
Excerpt: as §1, §2, §3

[4] = phase I clinical trial, cited from earlier work
Excerpt: Recognising the anti-proliferative action together with other preclinical evidence supporting broad-spectrum neuropeptide antagonism prompted a phase I clinical trial with SPG,[11] the results of which were encouraging. […] This, combined with low potency of the peptide, necessitated prolonged dosing by infusion to maintain therapeutic concentrati ...

[5] = Peptide stability in mouse plasma (HPLC); assay type: in vitro ADME; settings: neat mouse plasma, 37 °C; for stability in mouse plasma over 3 hour incubation: 400 µg/ml, 0 and 3 h, RP-HPLC C8, 220 nm, triplicate
Experimental: (§4) Plasma drug interaction affects the ability of the drug to distribute into tissues. To determine the extent of plasma binding to peptide 2, equilibrium dialysis (Cyprotex Ltd) was carried out. A 5 μM solution of peptide in PBS at pH 7.5 in 0.5% DMSO was mixed with neat human plasma in a total volume of 0.15 ml. After equilibrium at 37 °C, aliquots were taken from both sides of the membrane to determine the fraction of bound peptide. […] While in circulation, the peptide needs to be stable for a few hours to accumulate in tumours. It is commonly accepted that unmodified peptides are highly prone to protease digestion in plasma, leading to rapid degradation within a few minutes. Peptides 1 and 2 were subjected to stability testing in mouse plasma. The peptides dissolved in neat plasma (0.2 ml) were incubated at 37 °C. Aliquots (20 μl) were taken at 0 and 3 hour intervals in triplicate for analysis by HPLC. […] A plasma stability of 3 hours is considered as a sufficient time window to accumulate in tumour for efficacy studies.
4. Peptides stability in mouse plasma
Eppendorf® tubes were used for sample preparations. HPLC microvials were bought from Sigma-Aldrich®. HPLC analysis was performed using a C8 column (ACE 5 C8 – 250 X 4.6mm id) on a PerkinElmer Series 200 machine.
4.2. Peptides plasma stability
Peptides were added to neat mouse plasma at a concentration of 400 µg/ml and placed inside an incubator at 37 °C for 3 hours. Aliquots (20 µl) were taken at 0 and 3 hour periods. […] Then 80 µl of the supernatant was added to 0.1% TFA/H2O (120 µl) and transferred into a HPLC microvial to be analysed using the C8 column. […]
DMS79 cells were injected subcutaneously into ten CBA nude female mice (bred in house) at 5x10^6 cells/mouse in 0.1 ml of serum free RPMI-1640 medium containing 50% matrigel (Scientific Laboratory Supplies, Surrey, UK) as described in our recent publication (Reference 38). Tumours were measured and mice weighed 3 times a week throughout the study. Tumour volumes were calculated by multiplying the length, width and depth of tumors. […]

[6] = Aqueous solubility (observation on dosing solutions); assay type: physicochemical; settings: observation while preparing dosing solutions; higher concentration gave significant precipitation
[7] = Plasma binding by equilibrium dialysis (Cyprotex Ltd); assay type: in vitro ADME; settings: neat human plasma
Experimental: as §4

[8] = system: NCI-H69 cells; settings: at 50 μM, serum-free media; cited from earlier work
Excerpt: (§5) Several other related short chain SP antagonists have been investigated in the literature. […] Recently, Sarvi et al.[19] designed and synthesised a panel of eight substance P-peptide analogues ranging from a pentamer to 11-mer sequences. They compared their IC50 values, relative to SPG, using H345 and H69 cell lines. All an ...

[9] = system: H345 xenografts; settings: subcutaneous injections, 25 mg kg^–1; cited from earlier work
Experimental: The relative tumour volume (RTV) as a percentage was calculated by dividing the tumour volumes on measured days by the tumour volume on day 0, before treatment. […] Excluding this single animal from the treated group, the tumour growth inhibition (TGI, Fig. 5) was calculated at day 7 as TGI (%) = (1 – T/C) × 100, where T indicates the mean tumour volume (mm^3) of the test group and C indicates the mean tumour volume of the vehicle-treated group. At day 7, the tumour volumes of pre ...

[10] = system: H69; settings: treatment for 72 hours; cited from earlier work
Excerpt: Swiss Albino cell line 3T3 and two SCLC cell lines, DMS79 and H69, were selected for screening. 3T3 cells are fibroblast non-cancerous cells and were used to show the selectivity of the peptides for cancer treatment. The DMS79 cell line is a variant cell line model which is more resistant to chemotherapy as it originates from a patient with SCLC who had undergone treatment with cytoxan, vincristine, methotrexate and radiation therapy. On the other hand, H69 represents a chemo-naive SCLC cell line model. Cell viability was assessed by quantifying the reduction of resazurin dye to fluorescent re ...

[11] = system: H345 and H69 cell lines; settings: cited from earlier work
Excerpt: as §5

[12] = up to the concentration of 30 μM, resazurin

## CSCC[C@H](NC(=O)[C@H](CC(C)C)NC(=O)[C@@H](Cc1c[nH]c2ccccc12)NC(=O)[C@H](Cc1ccccc1)N(C)C(=O)[C@@H](Cc1c[nH]c2ccccc12)NC(=O)[C@@H](N)CCCNC(=N)N)C(N)=O [SPG, Arg–D-Trp–NMePhe–D-Trp–Leu–Met-NH2] (H-R[dW][NMeF][dW]LM-NH2)
[1]
  IC50: > 30 µM
[2]
  IC50: > 30 µM
[2]; [12]
  inhibitory effect (cytotoxicity profile), H69: no inhibitory effect
[3]
  IC50: > 30 µM
[3]; [12]
  inhibitory effect (cytotoxicity profile), DMS79: no inhibitory effect
[4]; resulting in poor systemic bioavailability
  elimination from plasma: quickly eliminated from plasma
[4]
  toxicity: minimal toxicity

## CN[C@H](Cc1ccccc1)C(=O)N[C@H](Cc1c[nH]c2ccccc12)C(=O)N[C@@H](Cc1ccccc1)C(=O)N[C@H](Cc1c[nH]c2ccccc12)C(=O)N[C@@H](CC(C)C)C(N)=O [peptide 1] (H-[dNMeF][dW]F[dW]L-NH2)
[5]
  stability in mouse plasma over 3 hour incubation: remained largely intact

## C=CC(C)(C)n1cc(C[C@@H](NC(=O)[C@H](Cc2ccccc2)NC(=O)[C@@H](Cc2c[nH]c3ccccc23)NC(=O)[C@@H](Cc2ccccc2)NC)C(=O)N[C@@H](CC(C)C)C(N)=O)c2ccccc21 [peptide 2, NMeDPhe-DTrp-Phe-DTrp(N-tert-prenyl)-Leu-NH2] (H-[dNMeF][dW]F[X1]L-NH2)
[6]
  aqueous solubility: limited aqueous solubility; also recorded: lower aqueous solubility than SPG
[2]; depending on the cell line (DMS79 and H69)
  cytotoxicity enhancement of 2 over pentamer 1 (comparison of IC50 values): 5 to 10 fold
[5]
  stability in mouse plasma over 3 hour incubation: remained largely intact; also recorded: a small percentage of degradation was noted
[5]; HPLC
  time of resisting degradation by plasma: at least 3 hours
[7]; 5 μM peptide in PBS pH 7.5 with 0.5% DMSO, total volume 0.15 ml, 37 °C, mean
  fraction unbound at 5 µM: 0.728 ± 0.124
[7]; 5 μM, PBS pH 7.5, 37 °C
  peptide unbound: 73%

## D-MePhe–D-Trp–Phe–D-Trp–Leu-MPA [NY3521]
[8]
  inhibition of growth of NCI-H69 cells: completely inhibited

## D-MePhe–D-Trp–Phe–D-Trp–LeuΨ(CH2NH)Leu-NH2 [NY3460]
[8]
  inhibition of growth of NCI-H69 cells: completely inhibited

## [dR]PKP[dW]Q[dW]F[dW][dL]L [11-mer]
[9]
  tumour growth: significant reduction in tumour growth
[10]
  IC50: 4.96 ± 0.64 µM
[11]
  potency relative to SPG (IC50 values): 3 to 4 fold
